Read-outs that look alike come from different tables or passages of the source.
Assays:
TC-PTP = TC-PTP (Homo sapiens (Human), UniProt P17706); assay: pNPP hydrolysis enzyme assay, TC-PTP; assay type: biochemical; conditions: for IC50: pNPP substrate
Method: (§1) Enzyme kinetic assay. PTP activity was assayed using p-nitrophenyl phosphate (pNPP) as a substrate in 3,3-dimethylglutarate buffer (50 mM 3,3-dimethylglutarate, pH 7.0, 1 mM EDTA, 150 mM NaCl, 2 mM DTT, 0.1 mg/mL BSA) at 25° C. The assays were performed in 96-well plates. Normally, to determine the IC50 values, the reaction was initiated by the addition of enzyme (final concentration at 10 nM) to a reaction mixture (0.2 mL) containing 2 mM (Km for the substrate) pNPP with various concentrations of inhibitors. The reaction rate was measured using a SpectraMax Plus 384 Microplate Spectrophotometer (Molecular Devices). To determine the mode of inhibition, the reactions were initiated by the addition of PTP-MEG2 to the reaction mixtures (0.2 mL) containing various concentrations of pNPP with different concentrations of the inhibitor 7. Data were fitted using SigmaPlot Enzyme Kinetics Module (Systat Software, Inc.).

CD45 = CD45 (Homo sapiens (Human), UniProt P08575); assay: pNPP hydrolysis enzyme assay, CD45; assay type: biochemical
Method: as §1

LAR = LAR (Homo sapiens (Human), UniProt P10586); assay: pNPP hydrolysis enzyme assay, LAR; assay type: biochemical
Method: as §1

HePTP = HePTP (Homo sapiens (Human), UniProt P35236); assay: pNPP hydrolysis enzyme assay, HePTP; assay type: biochemical
Method: as §1

VHX = VHX (Homo sapiens (Human), UniProt Q9NRW4); assay: pNPP hydrolysis enzyme assay, VHX; assay type: biochemical
Method: as §1

PTPμ = PTPμ (Homo sapiens (Human), UniProt P28827); assay: pNPP hydrolysis enzyme assay, PTPμ; assay type: biochemical
Method: as §1

PTP-PEST = PTP-PEST (Homo sapiens (Human), UniProt Q05209); assay: pNPP hydrolysis enzyme assay, PTP-PEST; assay type: biochemical
Method: as §1

PTPγ = PTPγ (Homo sapiens (Human), UniProt P23470); assay: pNPP hydrolysis enzyme assay, PTPγ; assay type: biochemical
Method: as §1

PTPH1 = PTPH1 (Homo sapiens (Human), UniProt P26045); assay: pNPP hydrolysis enzyme assay, PTPH1; assay type: biochemical
Method: as §1

[1] = test system: panel of mammalian PTPs (PTP-MEG1, SHP1, SHP2, Lyp, FAP-1, PTP-PEST, PTPH1, Laforin, HePTP, CD45, LAR, DEP1, PTPμ, PTPγ, PTPβ, PTPε, VHR, VHX); assay: Inhibition of a panel of mammalian PTPs at 10 μM; assay type: biochemical
Method: as §1

[2] = test system: Foxo1 target genes in mouse primary hepatocytes; assay: Foxo1 target gene expression in mouse primary hepatocytes (real-time PCR); assay type: cell-based; conditions: with insulin, overnight, normalized with Ppia
Method: FIGS. 4A-B depict the ability of PTP-MEG2 inhibitor Compound 7 to sensitize insulin signaling in primary hepatocytes. […] Mouse primary hepatocytes were cultured in 0.5% FBS DMEM medium overnight. Prior to insulin stimulation, the cells were pretreated with Compound 7 or 8 for 1 hour. Then the cells were stimulated with 5 nM insulin for 5 minutes. Insulin signaling was analyzed by Western Blots using phospho-specific antibodies. […] Mouse primary hepatocytes were cultured in DMEM medium plus 0.5% FBS for overnight in the presence or absence of insulin or Compound 7 or 8. Then the cells were harvested for mRNA isolation and gene expression analysis using real-time PCR. The mRNA levels of Foxo1 target genes were normalized with Ppia as an internal control. Data are presented as mean±SEM. *, P<0.05 for Compound 7 vs. DMSO; #, P<0.05 for INS+Compound 7 vs. INS alone.
RNA isolation and real-time PCR. RNA isolation was performed as described previously (Jänne, et al. Nat. Rev. Drug Discov. 2009, 8, 709-723). Real-time RT-PCR was performed in two steps: first, cDNA was synthesized using a cDNA synthesis kit (Applied Biosystems Inc.); second, cDNA was analyzed by real-time PCR using SYBR Green Master Mix (Promega). […]

[3] = test system: diet-induced obese C57BL/6 mice; assay: Insulin tolerance test in diet-induced obese mice; assay type: in vivo, mouse; conditions: 5 mg/kg i.p. twice a day
Method: (§2) C57BL/6J mice were fed a high-fat diet for 10 weeks before Compound 7 or vehicle was injected intraperitoneally twice a day at a dose of 5 mg/kg body weight. FIG. 5A depicts insulin tolerance tests (ITT) performed on Day 7 by injecting intraperitoneally a bolus of 0.75 unit/kg of human regular insulin. […] FIG. 5C depicts glucose tolerance tests (GTT) carried out on Day 9 after a bolus of 1 g/kg glucose was injected intraperitoneally. […] FIG. 5E depicts pyruvate tolerance tests (PTT) performed on Day 12 after an injection of 2 g/kg pyruvate solution. […] At the end of 2-week injections of Compound 7, animals were fasted overnight and stimulated with a bolus of 1 unit of human regular insulin or saline via vena cava. Three minutes later, liver, skeletal muscle, and white adipose tissue (WAT) were collected sequentially for insulin signaling analysis. FIG. 5G depicts the phosphorylation of Tyr1162/1163 in insulin receptor (IR) and Ser473 phosphorylation in Akt kinases and the corresponding proteins in the liver, skeletal muscle, and white adipose tissue (WAT) were analyzed by immunoblots.
(§3) To this end, we intraperitoneally injected Compound 7 into diet-induced obese C57BL/6 mice at a dose of 5 mg/kg twice a day. […] After 7 days of injections, we performed insulin tolerance tests to measure insulin sensitivity in vehicle and Compound 7 treated mice.

[4] = test system: diet-induced obese C57BL/6 mice; assay: Glucose tolerance test in diet-induced obese mice; conditions: 5 mg/kg i.p. twice a day
Method: as §2, §3

TC-PTP, sequence (P17706 whole entry, looked up, species assumed): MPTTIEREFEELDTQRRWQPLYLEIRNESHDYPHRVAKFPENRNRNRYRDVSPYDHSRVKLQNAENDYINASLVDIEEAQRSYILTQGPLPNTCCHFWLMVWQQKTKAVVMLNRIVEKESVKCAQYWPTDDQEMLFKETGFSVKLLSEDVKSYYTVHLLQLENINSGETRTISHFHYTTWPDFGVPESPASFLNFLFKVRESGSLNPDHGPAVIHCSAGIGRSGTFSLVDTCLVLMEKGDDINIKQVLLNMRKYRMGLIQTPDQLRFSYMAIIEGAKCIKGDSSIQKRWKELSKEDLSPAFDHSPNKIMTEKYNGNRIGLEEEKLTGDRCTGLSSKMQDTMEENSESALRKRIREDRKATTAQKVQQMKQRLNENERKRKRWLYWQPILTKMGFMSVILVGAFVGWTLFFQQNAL
VHX, sequence (Q9NRW4 whole entry): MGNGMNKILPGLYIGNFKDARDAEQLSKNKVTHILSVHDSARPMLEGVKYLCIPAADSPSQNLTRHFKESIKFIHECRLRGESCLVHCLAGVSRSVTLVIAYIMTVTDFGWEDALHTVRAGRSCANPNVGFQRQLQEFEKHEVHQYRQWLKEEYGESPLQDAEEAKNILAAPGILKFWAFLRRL
HePTP, sequence (P35236 whole entry, species assumed): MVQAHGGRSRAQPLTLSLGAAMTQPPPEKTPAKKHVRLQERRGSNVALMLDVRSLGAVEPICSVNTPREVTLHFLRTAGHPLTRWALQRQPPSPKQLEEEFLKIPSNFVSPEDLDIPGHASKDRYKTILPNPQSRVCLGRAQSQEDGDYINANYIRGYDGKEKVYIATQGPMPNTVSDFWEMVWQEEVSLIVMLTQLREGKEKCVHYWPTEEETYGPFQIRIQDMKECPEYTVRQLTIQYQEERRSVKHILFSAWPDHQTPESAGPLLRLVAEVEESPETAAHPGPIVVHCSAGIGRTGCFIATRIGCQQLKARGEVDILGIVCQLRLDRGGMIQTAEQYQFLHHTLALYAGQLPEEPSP
LAR, sequence (P10586 whole entry, looked up, species assumed): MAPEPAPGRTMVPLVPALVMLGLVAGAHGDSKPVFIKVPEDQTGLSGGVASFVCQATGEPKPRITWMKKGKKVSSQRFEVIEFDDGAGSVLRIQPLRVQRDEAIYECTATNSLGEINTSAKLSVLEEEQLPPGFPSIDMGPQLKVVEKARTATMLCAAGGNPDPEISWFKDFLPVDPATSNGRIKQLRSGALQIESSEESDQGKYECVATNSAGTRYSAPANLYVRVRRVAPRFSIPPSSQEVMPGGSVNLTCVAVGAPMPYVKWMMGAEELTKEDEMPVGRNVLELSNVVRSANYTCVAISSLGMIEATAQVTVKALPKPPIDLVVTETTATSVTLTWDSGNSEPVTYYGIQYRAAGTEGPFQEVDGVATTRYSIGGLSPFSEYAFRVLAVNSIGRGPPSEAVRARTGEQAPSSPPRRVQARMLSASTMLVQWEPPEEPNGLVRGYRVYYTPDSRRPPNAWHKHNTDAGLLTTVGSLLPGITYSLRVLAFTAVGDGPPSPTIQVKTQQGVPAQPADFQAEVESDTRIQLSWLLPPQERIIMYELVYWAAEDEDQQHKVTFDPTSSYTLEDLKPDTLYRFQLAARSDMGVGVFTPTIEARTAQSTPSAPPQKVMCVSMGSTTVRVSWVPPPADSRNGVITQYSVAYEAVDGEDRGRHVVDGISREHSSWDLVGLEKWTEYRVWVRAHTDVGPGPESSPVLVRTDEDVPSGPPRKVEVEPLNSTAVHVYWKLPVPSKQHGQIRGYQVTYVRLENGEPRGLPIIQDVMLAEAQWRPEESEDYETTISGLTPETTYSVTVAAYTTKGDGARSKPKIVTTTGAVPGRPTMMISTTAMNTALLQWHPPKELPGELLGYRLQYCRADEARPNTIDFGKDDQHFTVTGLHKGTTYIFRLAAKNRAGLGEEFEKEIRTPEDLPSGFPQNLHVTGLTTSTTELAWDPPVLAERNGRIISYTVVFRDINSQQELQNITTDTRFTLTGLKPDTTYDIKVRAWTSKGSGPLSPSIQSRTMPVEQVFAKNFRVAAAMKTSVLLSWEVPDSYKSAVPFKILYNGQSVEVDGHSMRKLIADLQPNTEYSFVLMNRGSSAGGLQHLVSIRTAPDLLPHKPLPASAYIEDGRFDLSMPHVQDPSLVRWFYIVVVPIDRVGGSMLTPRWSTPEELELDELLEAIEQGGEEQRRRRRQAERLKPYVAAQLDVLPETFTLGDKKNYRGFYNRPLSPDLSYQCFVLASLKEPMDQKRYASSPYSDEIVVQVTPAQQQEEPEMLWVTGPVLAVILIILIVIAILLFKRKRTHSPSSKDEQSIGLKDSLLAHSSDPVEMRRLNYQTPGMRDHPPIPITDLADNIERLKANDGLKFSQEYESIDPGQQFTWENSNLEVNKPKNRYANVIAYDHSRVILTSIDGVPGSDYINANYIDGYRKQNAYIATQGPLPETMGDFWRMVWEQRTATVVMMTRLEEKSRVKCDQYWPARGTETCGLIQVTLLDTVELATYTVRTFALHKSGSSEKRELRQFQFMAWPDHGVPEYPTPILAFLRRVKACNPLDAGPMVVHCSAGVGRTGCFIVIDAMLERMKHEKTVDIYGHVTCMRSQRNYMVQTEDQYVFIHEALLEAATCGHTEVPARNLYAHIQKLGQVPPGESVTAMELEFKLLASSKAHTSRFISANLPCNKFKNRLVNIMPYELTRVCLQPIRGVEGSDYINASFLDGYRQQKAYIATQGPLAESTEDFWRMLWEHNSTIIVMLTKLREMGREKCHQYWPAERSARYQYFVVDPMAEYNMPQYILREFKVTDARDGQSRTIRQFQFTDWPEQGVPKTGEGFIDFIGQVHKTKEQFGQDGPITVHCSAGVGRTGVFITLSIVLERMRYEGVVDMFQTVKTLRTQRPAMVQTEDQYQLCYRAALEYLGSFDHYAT
PTPγ, sequence (P23470 20-1445): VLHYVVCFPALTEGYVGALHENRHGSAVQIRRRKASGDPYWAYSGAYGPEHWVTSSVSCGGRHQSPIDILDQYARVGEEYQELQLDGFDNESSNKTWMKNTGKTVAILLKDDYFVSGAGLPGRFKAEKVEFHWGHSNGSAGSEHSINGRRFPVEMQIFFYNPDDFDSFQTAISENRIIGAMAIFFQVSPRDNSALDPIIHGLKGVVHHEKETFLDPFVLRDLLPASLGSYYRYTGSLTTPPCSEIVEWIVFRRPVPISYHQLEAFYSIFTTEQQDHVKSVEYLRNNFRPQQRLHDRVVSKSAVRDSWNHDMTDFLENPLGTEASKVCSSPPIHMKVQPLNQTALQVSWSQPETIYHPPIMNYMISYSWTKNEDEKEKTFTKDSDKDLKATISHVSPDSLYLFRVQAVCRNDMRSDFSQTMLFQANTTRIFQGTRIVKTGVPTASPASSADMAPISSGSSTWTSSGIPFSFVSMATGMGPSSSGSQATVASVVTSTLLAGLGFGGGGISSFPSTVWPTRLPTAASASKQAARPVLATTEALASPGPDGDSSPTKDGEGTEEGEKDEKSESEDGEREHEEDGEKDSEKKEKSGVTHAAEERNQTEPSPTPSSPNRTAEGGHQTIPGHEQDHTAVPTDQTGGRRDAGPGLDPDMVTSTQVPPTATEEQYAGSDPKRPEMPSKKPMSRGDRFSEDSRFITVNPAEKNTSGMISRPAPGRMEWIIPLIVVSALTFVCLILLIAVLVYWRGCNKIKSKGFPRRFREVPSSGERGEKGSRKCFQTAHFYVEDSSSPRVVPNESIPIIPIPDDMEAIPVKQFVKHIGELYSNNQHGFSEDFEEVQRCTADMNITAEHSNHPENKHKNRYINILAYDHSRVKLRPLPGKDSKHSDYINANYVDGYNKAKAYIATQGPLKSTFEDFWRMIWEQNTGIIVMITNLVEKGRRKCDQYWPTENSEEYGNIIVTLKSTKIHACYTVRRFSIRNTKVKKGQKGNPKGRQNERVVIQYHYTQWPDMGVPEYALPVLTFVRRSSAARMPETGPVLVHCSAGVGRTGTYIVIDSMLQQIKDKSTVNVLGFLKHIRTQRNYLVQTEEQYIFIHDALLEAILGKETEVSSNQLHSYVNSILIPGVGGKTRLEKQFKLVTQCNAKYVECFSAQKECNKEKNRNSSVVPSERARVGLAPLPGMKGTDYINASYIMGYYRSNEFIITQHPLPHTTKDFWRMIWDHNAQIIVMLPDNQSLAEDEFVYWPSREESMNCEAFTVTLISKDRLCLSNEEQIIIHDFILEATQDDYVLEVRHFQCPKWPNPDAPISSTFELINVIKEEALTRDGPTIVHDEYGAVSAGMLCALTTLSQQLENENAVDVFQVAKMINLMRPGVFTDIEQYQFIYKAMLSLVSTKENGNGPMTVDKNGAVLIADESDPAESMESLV
PTP-PEST, sequence (Q05209 whole entry, species assumed): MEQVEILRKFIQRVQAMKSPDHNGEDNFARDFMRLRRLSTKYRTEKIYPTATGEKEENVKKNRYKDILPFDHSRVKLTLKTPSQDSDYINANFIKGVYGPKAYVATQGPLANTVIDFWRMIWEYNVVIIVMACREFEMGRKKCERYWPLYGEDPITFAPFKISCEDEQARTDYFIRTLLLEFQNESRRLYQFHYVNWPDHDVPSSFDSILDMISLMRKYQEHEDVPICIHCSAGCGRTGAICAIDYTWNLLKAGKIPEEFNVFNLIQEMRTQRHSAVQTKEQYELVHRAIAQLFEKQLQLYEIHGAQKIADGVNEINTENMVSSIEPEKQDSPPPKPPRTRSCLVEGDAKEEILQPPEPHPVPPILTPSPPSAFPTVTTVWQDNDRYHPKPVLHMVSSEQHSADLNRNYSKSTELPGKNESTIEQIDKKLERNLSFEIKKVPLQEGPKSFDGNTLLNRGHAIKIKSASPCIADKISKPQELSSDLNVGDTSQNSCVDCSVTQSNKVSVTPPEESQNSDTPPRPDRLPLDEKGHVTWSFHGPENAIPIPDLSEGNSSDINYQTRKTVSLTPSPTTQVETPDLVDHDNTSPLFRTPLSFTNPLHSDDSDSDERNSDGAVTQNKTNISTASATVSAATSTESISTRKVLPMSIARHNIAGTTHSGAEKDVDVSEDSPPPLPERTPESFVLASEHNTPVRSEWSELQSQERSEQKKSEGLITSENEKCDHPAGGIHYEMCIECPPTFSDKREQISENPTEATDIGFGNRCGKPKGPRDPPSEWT

Q: What does the source list for `COc1cc(CC(=O)NCC(NC(=O)C(CCCNC(=O)c2cccc(I)c2)NC(=O)C(Cc2ccc(C(F)(F)P(=O)(O)O)cc2)NC(=O)c2ccc(C)c(Br)c2)C(N)=O)ccc1O` (centres unmarked) [Compound 7]?
A: IC50 (TC-PTP; read-out: IC50 (nM) TC-PTP): 830 nM; IC50 (TC-PTP; read-out: IC50 for TC-PTP): 830 nM; selectivity for PTP-MEG2 over TC-PTP (TC-PTP; ratio of IC50 values): more than 10 fold; IC50 (CD45): > 10000 nM; IC50 (LAR): > 10000 nM; IC50 (HePTP): > 10000 nM; IC50 (VHX): > 10000 nM; IC50 (PTPμ): > 10000 nM; IC50 (PTP-PEST): > 10000 nM; IC50 (PTPγ): > 10000 nM; IC50 (PTPH1): > 10000 nM; inhibition of a panel of mammalian PTPs [1]: no inhibition; Pdk4, Igfbp1, and G6pc gene expression (Foxo1 transcriptional activity) [2]: synergistic reduction; insulin sensitivity in insulin tolerance test ([3]; Day 7, at 15 and 60 minutes after 0.75 unit insulin): significantly improved insulin sensitivity; improvement in insulin tolerance (AUC) ([3]; Day 7, vs vehicle): 14%; glucose clearance in glucose tolerance test ([4]; Day 9, at 15, 30, and 60 minutes): significantly enhanced glucose clearance; improvement in glucose disposal (AUC) ([4]; Day 9, vs vehicle): 21%

Reference: patent US9340574B2, “Inhibitors of protein tyrosine phosphatases” (Indiana University Research and Technology Corporation, priority 2012, dated 2016)
